Type in all cases: biochemical
One experiment addresses T1, human proteinase 3 (Homo sapiens, UniProt P24158).
T1 construct: purchased Elastin Products Company, USA
T1 sequence (P24158 28-248): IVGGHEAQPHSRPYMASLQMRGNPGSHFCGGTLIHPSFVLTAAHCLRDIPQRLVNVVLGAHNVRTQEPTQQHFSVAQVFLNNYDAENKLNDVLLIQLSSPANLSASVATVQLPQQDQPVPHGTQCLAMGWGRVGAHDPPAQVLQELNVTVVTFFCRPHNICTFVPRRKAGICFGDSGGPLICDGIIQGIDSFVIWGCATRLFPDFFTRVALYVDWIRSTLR
Briefly: Inhibition of human proteinase 3 (substrate Boc-Ala-Ala-Nva-SBzl). Conditions: for hNE/hPr3 selectivity: ratio of hPr3 IC50 to hNE IC50; for pIC50: substrate Boc-Ala-Ala-Nva-SBzl 1 mM, enzyme 10 nM, 37° C., pH7.4, read-out: Human proteinase 3 (hPr3) IC50. In outline:
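Enzyme at 10 nM incubated at 37°C with 1 mM thiobenzyl ester substrate, 250 μM 4,4′-dithiodipyridine and serial peptide dilutions (0.5% DMSO) in Tris pH 7.4, 150 mM NaCl, 0.01% Tween20. Absorbance at 340 nm followed over 30 min; IC50 from 4-parameter Hill fit.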

The target in experiment [1] is T2, porcine pancreatic elastase (Sus scrofa, UniProt P00772).
T2 construct: purchased Sigma, USA
T2 sequence (P00772 27-266): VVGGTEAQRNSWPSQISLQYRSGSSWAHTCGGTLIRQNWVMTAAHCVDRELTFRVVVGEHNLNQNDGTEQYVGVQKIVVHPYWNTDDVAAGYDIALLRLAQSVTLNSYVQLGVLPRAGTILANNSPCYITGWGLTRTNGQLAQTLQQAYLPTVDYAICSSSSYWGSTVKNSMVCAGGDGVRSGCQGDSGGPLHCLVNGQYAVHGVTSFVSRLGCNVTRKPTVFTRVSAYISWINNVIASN
Briefly: Inhibition of porcine pancreatic elastase (hydrolysis of MeOSuc-AAA-pNA). The conditions noted are these: for hNE/PPE selectivity: ratio of PPE IC50 to hNE IC50; for pIC50: substrate MeOSuc-AAA-pNA 1 mM, enzyme 15 nM, 37° C., pH8, read-out: Porcine pancreatic elastase (PPE) IC50. In outline: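 Elastase (15 nM) incubated at 37 °C with 1 mM MeOSuc-AAA-pNA and serially diluted peptides (0.5% DMSO) in 50 mM Tris pH 8, 100 mM NaCl, 0.01% Tween20. pNA release read at 405 nm over 30 min; IC50 from 4-parameter Hill fit.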

Experiment [2] has as its target T3, human neutrophil elastase (Homo sapiens, UniProt P08246).
T3 construct: purchased Serva Electrophoresis, Germany
T3 sequence (P08246 30-267): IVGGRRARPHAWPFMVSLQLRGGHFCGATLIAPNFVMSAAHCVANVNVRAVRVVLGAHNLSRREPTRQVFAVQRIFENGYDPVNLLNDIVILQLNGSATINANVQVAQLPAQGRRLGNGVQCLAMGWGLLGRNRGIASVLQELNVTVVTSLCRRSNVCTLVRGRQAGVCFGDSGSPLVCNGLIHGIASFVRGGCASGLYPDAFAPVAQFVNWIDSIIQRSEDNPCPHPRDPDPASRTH
Briefly: Inhibition of human neutrophil elastase (hydrolysis of MeOSuc-AAPV-pNA). Conditions: substrate MeOSuc-AAPV-pNA 0.3 mM, enzyme 10 nM, 37° C., pH 8; read-out: Human neutrophil elastase (hNE) IC50. The essentials:
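MeOSuc-AAPV-pNA (0.3 mM) hydrolysis by 10 nM enzyme at 37° C with serially diluted peptides (1% DMSO) in 50 mM Tris pH 8, 300 mM NaCl, 0.01% Tween20. pNA release read at 405 nm over 30 minutes; IC50 from 4-parameter Hill fit.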

Each structure is given as a SMILES string. pIC50: −log10 of the molar value. *1 amine or outer side, *2 acyl side, *3 side chain or, on linkers, in order; H or OH if unused. Where a SMILES comes first, the peptide text is derived from it. [ ]: non-standard residue; d: D form. X3 = O=C(CC[C@H](Cc1ccc(O)cc1)N[*:1])[*:2]; Oic = O=C(O)[C@@H]1C[C@@H]2CCCC[C@@H]2N1; X1 = NCCCC[C@@H](CCC(=O)[*:2])N[*:1]; Gly(octyl) = CCCCCCCC[C@H](N)C(=O)O; β3hQ = NC(=O)CC[C@H](N)CC(=O)O; β3hP = O=C(O)C[C@@H]1CCCN1; hSer = N[C@@H](CCO)C(=O)O; Dap = NC[C@H](N)C(=O)O

The term pIC50 denotes the IC50 on a negative log10 scale, so that one unit is a factor of ten.

With `CCCCCCCC[C@@H]1NC(=O)[C@@H]2CCCN2C(=O)[C@H]2CCCN2C(=O)[C@H](CN)NC(=O)[C@H](CCCCN)NC(=O)[C@H](CCC(N)=O)NC(=O)[C@@H]2CCCN2C(=O)[C@@H]2CCCN2C(=O)[C@H]([C@@H](C)CC)NC(=O)[C@H](CO)NC(=O)[C@H](C)NC(=O)[C@H]([C@@H](C)O)NC(=O)[C@H](CCC(=O)O)NC1=O` [Example 2, Cyclo(-OctGly-Glu-Thr-Ala-Ser-Ile-Pro-Pro-Gln-Lys-Dap-^DPro-Pro-)] (cyclo([Gly(octyl)]ETASIPPQK[Dap][dP]P)), on human proteinase 3, the hNE/hPr3 selectivity worked out at 644. Moreover, the pIC50 was 5.45 on human proteinase 3, 5.92 in experiment [1] and 8.26 in experiment [2]. Moreover, in experiment [1], the hNE/PPE selectivity is reported as 218.

Take `CCCCCCCC[C@@H]1NC(=O)[C@@H]2CCCN2C(=O)[C@H]2CCCN2C(=O)[C@H]([C@@H](C)O)NC(=O)CC[C@H](CCCCN)NC(=O)[C@H](CCC(N)=O)NC(=O)[C@@H]2CCCN2C(=O)[C@@H]2CCCN2C(=O)[C@H]([C@@H](C)CC)NC(=O)[C@H](CO)NC(=O)[C@H](C)NC(=O)[C@H]([C@@H](C)O)NC(=O)[C@H](CCC(=O)O)NC1=O` [Example 38, Cyclo(-OctGly-Glu-Thr-Ala-Ser-Ile-Pro-Pro-Gln-[H-γ^4-DiHLys-OH]-Thr-^DPro-Pro-)] (cyclo([Gly(octyl)]ETASIPPQ[X1]T[dP]P)): at human proteinase 3, the hNE/hPr3 selectivity was determined as 535 and the pIC50 was 5.04. In experiment [1], the hNE/PPE selectivity was found to be 535 and the pIC50 was 5.04. The negative logarithm of the IC50 (pIC50) in experiment [2] is 7.76.

Take `CCCCCCCC[C@@H]1NC(=O)[C@@H]2C[C@@H]3CCCC[C@@H]3N2C(=O)[C@H]2CCCN2C(=O)[C@H]([C@@H](C)O)NC(=O)[C@H](CCCCN)NC(=O)[C@H](CCC(N)=O)NC(=O)[C@@H]2CCCN2C(=O)[C@@H]2CCCN2C(=O)[C@H]([C@@H](C)CC)NC(=O)[C@H](CO)NC(=O)[C@H](C)NC(=O)[C@H]([C@@H](C)O)NC(=O)[C@H](CCC(=O)O)NC1=O` [Example 6, Cyclo(-OctGly-Glu-Thr-Ala-Ser-Ile-Pro-Pro-Gln-Lys-Thr-^DPro-Oic-)] (cyclo([Gly(octyl)]ETASIPPQKT[dP][Oic])): on human proteinase 3, the hNE/hPr3 selectivity worked out at 372 and the pIC50 was 5.35. Further, in experiment [1], the hNE/PPE selectivity is reported as 321 and the pIC50 is 5.41. The pIC50 in experiment [2] was 7.92.

For `CCCCCCCC[C@@H]1NC(=O)[C@H](CCCCN)NC(=O)[C@@H](C(C)C)NC(=O)[C@H]([C@@H](C)O)NC(=O)[C@H](CCCCN)NC(=O)[C@H](CCC(N)=O)NC(=O)[C@@H]2CCCN2C(=O)[C@@H]2CCCN2C(=O)[C@H]([C@@H](C)CC)NC(=O)[C@H](CO)NC(=O)[C@H](C)NC(=O)[C@H]([C@@H](C)O)NC(=O)[C@H](CCC(=O)O)NC1=O` [Example 22, Cyclo(-OctGly-Glu-Thr-Ala-Ser-Ile-Pro-Pro-Gln-Lys-Thr-^DVal-Lys-)] (cyclo([Gly(octyl)]ETASIPPQKT[dV]K)), at human proteinase 3, the hNE/hPr3 selectivity is 5677 and the pIC50 was 4.15. Also, in experiment [1], the hNE/PPE selectivity turned out to be 4847 and the pIC50 was 4.22. Also, in experiment [2], the pIC50 was 7.91.

As to `CCCCCCCC[C@@H]1NC(=O)[C@@H]2CCCN2C(=O)[C@H]2CCCN2C(=O)CC[C@H](Cc2ccc(O)cc2)NC(=O)[C@H](CCCCN)NC(=O)[C@H](CCC(N)=O)NC(=O)[C@@H]2CCCN2C(=O)[C@@H]2CCCN2C(=O)[C@H]([C@@H](C)CC)NC(=O)[C@H](CO)NC(=O)[C@H](C)NC(=O)[C@H]([C@@H](C)O)NC(=O)[C@H](CCC(=O)O)NC1=O` [Example 8, Cyclo(-OctGly-Glu-Thr-Ala-Ser-Ile-Pro-Pro-Gln-Lys-[H-γ^4-DiHTyr-OH]-^DPro-Pro-)] (cyclo([Gly(octyl)]ETASIPPQK[X3][dP]P)), on human proteinase 3, the hNE/hPr3 selectivity amounted to 168 and the pIC50 was 5.48. In addition, in experiment [1], the hNE/PPE selectivity was found to be 91 and the pIC50 was 5.74. The pIC50 in experiment [2] is 7.70.

For `CCCCCCCC[C@@H]1NC(=O)[C@H](Cc2ccc(O)cc2)NC(=O)[C@@H](Cc2ccc(O)cc2)NC(=O)[C@H]([C@@H](C)O)NC(=O)[C@H](CCCCN)NC(=O)[C@H](CCC(N)=O)NC(=O)[C@@H]2CCCN2C(=O)[C@@H]2CCCN2C(=O)[C@H]([C@@H](C)CC)NC(=O)[C@H](CO)NC(=O)[C@H](C)NC(=O)[C@H]([C@@H](C)O)NC(=O)[C@H](CCC(=O)O)NC1=O` [Example 24, Cyclo(-OctGly-Glu-Thr-Ala-Ser-Ile-Pro-Pro-Gln-Lys-Thr-^DTyr-Tyr-)] (cyclo([Gly(octyl)]ETASIPPQKT[dY]Y)), at human proteinase 3, the hNE/hPr3 selectivity is given as 664 and the pIC50 was 5.11. Also, in experiment [1], the hNE/PPE selectivity is given as 1112 and the pIC50 is 4.89. The pIC50 in experiment [2] is 7.94.

Take `CCCCCCCC[C@@H]1NC(=O)[C@@H]2CCCN2C(=O)[C@H]2CCCN2C(=O)[C@H]([C@@H](C)O)NC(=O)[C@H](CCCCN)NC(=O)C[C@H](CCC(N)=O)NC(=O)[C@@H]2CCCN2C(=O)[C@@H]2CCCN2C(=O)[C@H]([C@@H](C)CC)NC(=O)[C@H](CO)NC(=O)[C@H](C)NC(=O)[C@H]([C@@H](C)O)NC(=O)[C@H](CCC(=O)O)NC1=O` [Example 36, Cyclo(-OctGly-Glu-Thr-Ala-Ser-Ile-Pro-Pro-[H-β^3-HGln-OH]-Lys-Thr-^DPro-Pro-)] (cyclo([Gly(octyl)]ETASIPP[β3hQ]KT[dP]P)): on human proteinase 3, the hNE/hPr3 selectivity worked out at 364. Besides, the pIC50 on human proteinase 3 is 5.23; in experiment [1], 4.95; in experiment [2], 7.79. In experiment [1], the hNE/PPE selectivity came out at 685.

In the case of `CCCCCCCC[C@@H]1NC(=O)[C@H](C(C)C)NC(=O)[C@@H](CCCCN)NC(=O)[C@H]([C@@H](C)O)NC(=O)[C@H](CCCCN)NC(=O)[C@H](CCC(N)=O)NC(=O)[C@@H]2CCCN2C(=O)[C@@H]2CCCN2C(=O)[C@H]([C@@H](C)CC)NC(=O)[C@H](CO)NC(=O)[C@H](C)NC(=O)[C@H]([C@@H](C)O)NC(=O)[C@H](CCC(=O)O)NC1=O` [Example 26, Cyclo(-OctGly-Glu-Thr-Ala-Ser-Ile-Pro-Pro-GI n-Lys-Thr-^DLys-Val-)] (cyclo([Gly(octyl)]ETASIPPQKT[dK]V)), at human proteinase 3, the hNE/hPr3 selectivity is 472 and the negative logarithm of the IC50 (pIC50) was 5.30. Besides, in experiment [1], the hNE/PPE selectivity was found to be 4415 and the pIC50 is 4.33. Moreover, the pIC50 in experiment [2] is 7.97.

For the compound `CCCCCCCC[C@@H]1NC(=O)C[C@@H]2CCCN2C(=O)[C@H]2CCCN2C(=O)[C@H]([C@@H](C)O)NC(=O)[C@H](CCCCN)NC(=O)[C@H](CCC(N)=O)NC(=O)[C@@H]2CCCN2C(=O)[C@@H]2CCCN2C(=O)[C@H]([C@@H](C)CC)NC(=O)[C@H](CO)NC(=O)[C@H](C)NC(=O)[C@H]([C@@H](C)O)NC(=O)[C@H](CCC(=O)O)NC1=O` [Example 39] (cyclo([Gly(octyl)]ETASIPPQKT[dP][β3hP])), at human proteinase 3, the hNE/hPr3 selectivity is reported as 24655 and the pIC50 is 4.15. In addition, in experiment [1], the hNE/PPE selectivity stood at 30310 and the pIC50 was 4.06. In addition, the pIC50 in experiment [2] was 8.54.

On to `CCCCCCCC[C@@H]1NC(=O)[C@@H]2CCCN2C(=O)[C@H]2CCCN2C(=O)[C@H](CCOC)NC(=O)[C@H](CCCCN)NC(=O)[C@H](CCC(N)=O)NC(=O)[C@@H]2CCCN2C(=O)[C@@H]2CCCN2C(=O)[C@H]([C@@H](C)CC)NC(=O)[C@H](CO)NC(=O)[C@H](C)NC(=O)[C@H]([C@@H](C)O)NC(=O)[C@H](CCC(=O)O)NC1=O` [Example 1, Cyclo(-OctGly-Glu-Thr-Ala-Ser-Ile-Pro-Pro-Gln-Lys-hSer(Me)-^DPro-Pro-)] (cyclo([Gly(octyl)]ETASIPPQK[hSer](Me)[dP]P)), for which the hNE/hPr3 selectivity on human proteinase 3 turned out to be 150. Moreover, the pIC50 is 6.14 on human proteinase 3, 6.21 in experiment [1] and 8.32 in experiment [2]. In experiment [1], the hNE/PPE selectivity is recorded as 129.

The values above are taken from patent US10273267B2, “Beta-hairpin peptidomimetics as selective elastase inhibitors” (POLYPHOR AG, priority 2013, dated 2019).
